The test system of test [1] is VCaP cells. The experiment in a line: Cellular growth inhibition assay for VCaP cells, CellTiter-Glo. It is filed as cell-based, human. The note with it: 72 hours. In short, it runs like this:
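GI50 values come from four-parameter curve fits of luminescence data normalized to a zero baseline. Compound, in medium with 0.5% DMSO, was added one day after plating and left for 72 h before CellTiter-Glo 2.0 addition.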
On the technique in general: In ATP-based viability assays light output follows the ATP content of the culture.

The subject of test [2] is T-Rex 293 cell line SC cells lacking increased expression of progesterone receptor isoform B protein. The experiment in a line: Cellular growth inhibition assay, T-Rex 293 SC cells not exposed to doxycycline (no increased progesterone receptor isoform B expression), CellTiter-Glo. Particulars: T-Rex 293 SC cells without doxycycline (no increased PR isoform B), 72 hours. It is filed as cell-based. Here is the method: (§1) The SC cells were seeded on poly-D-lysine coated, black clear-bottom 384-well plates at 2500/well, in 25 μL Phenol Red Free Dulbecco's Modified Eagle Medium (DMEM) supplemented with 10% w/w charcoal-dextran treated fetal bovine serum (FBS) and 1% w/w pen-strep, with or without 10 ng/mL doxycycline. Pen-Strep is a commercially available mixture of penicillin G and streptomycin, which is used in mammalian cell culture media to prevent bacterial contamination. Phenol Red Free Dulbecco's Modified Eagle Medium (DMEM) supplemented with 10% w/w charcoal-dextran treated fetal bovine serum (FBS) and 1% w/w pen-strep, with or without 10 ng/mL doxycycline is herein referred to as Treatment Medium. Following seeding of cells in the plates, the plates were spun at 300×g for 30 seconds, then equilibrated to room temperature for 30 minutes, and then deposited in a humidified tissue culture incubator maintained at 37° C. with 5% CO2.
(§2) At 24 hours after seeding of the cells, dilutions of test compound were prepared in DMSO and dissolved in Treatment Medium, to achieve a final DMSO concentration of 0.5% w/w, thereby providing the Test Compound Solution. A 25 μL aliquot of the Test Compound Solution was added to cells in the well plates. An equal volume of a solution containing DMSO and Treatment Medium was used as a negative control. Following treatment of cells with Test Compound Solution or said equal volume of a solution containing DMSO and Treatment Medium, the plates were spun at 300×g for 30 seconds, and then left in an incubator for 72 hours.
(§3) At the end of the treatment duration, cell viability was quantified with CellTiter-Glo 2.0 reagent (Promega Cat #G9243). For this purpose, plates were equilibrated to room temperature for 30 minutes, and then 25 μL of CellTiter-Glo 2.0 reagent was added to cells in the plate wells. Plates were then agitated on a shaker for two minutes at 500 rpm and subsequently incubated at room temperature for 10 minutes. Following incubation, the plates were spun at 3000×g for 30 seconds, then sealed with an optical adhesive cover, and luminescence readings were measured with an EnVision Plate Reader (Perkin Elmer).
(§4) Data was normalized using zero luminescence for baseline. A four-parameter non-linear regression curve fit was applied to dose-response data in GraphPad Prism data analysis software to determine the half-maximal growth inhibitory concentration (GI50) for each test compound.

The subject of test [3] is T-Rex 293 cell line SC cells having increased expression of progesterone receptor isoform B protein. The experiment in a line: Cellular growth inhibition assay, T-Rex 293 SC cells exposed to doxycycline (increased progesterone receptor isoform B expression), CellTiter-Glo. The note with it: T-Rex 293 SC cells with 10 ng/mL doxycycline (increased PR isoform B), 72 hours. It is filed as cell-based. Here is the method: as §1, §2, §3, §4

Test [4] deals with T-Rex 293 cell line SC3 cells having increased expression of androgen receptor protein due to exposure to doxycycline. Nature of the test: Cellular growth inhibition, T-Rex 293 SC3 cells with doxycycline (increased androgen receptor expression), CellTiter-Glo. It is filed as cell-based. Particulars: T-Rex 293 SC3 cells with 10 ng/mL doxycycline (increased androgen receptor expression), 72 hours, CellTiter-Glo 2.0. In short, it runs like this:
(§5)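 Growth inhibition is measured in an inducible AR-expressing T-Rex 293 clone, SC3, cultured with or without 10 ng/mL doxycycline in hormone-depleted medium. Test compounds are applied for 72 hours. GI50 values derive from CellTiter-Glo 2.0 signal fitted by four-parameter regression.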

Test [5] concerns T-Rex 293 cell line SC3 cells lacking increased expression of androgen receptor protein. The experiment in a line: Cellular growth inhibition, T-Rex 293 SC3 cells without doxycycline (no increased androgen receptor expression), CellTiter-Glo. It is filed as cell-based. Particulars: T-Rex 293 SC3 cells not exposed to doxycycline (no increased androgen receptor expression), 72 hours. Summed up: as §5

Test [6] relates to T47D cells. Nature of the test: Cellular Growth Inhibition Assay for T47D Cells (CellTiter-Glo). It is filed as cell-based, human. Particulars: Homo sapiens, 72 hours. In short, it runs like this:
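GI50 values derive from four-parameter regression of CellTiter-Glo 2.0 luminescence, using zero luminescence as baseline. Human breast cancer T47D cells (3000/well; DMEM, 10% FBS, 0.2 units/mL insulin) were exposed for 72 h to compound dilutions at 0.5% DMSO, with dosing starting 24 h after seeding.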

For test [7], the target named is T1, BRD4-BD2 (Homo sapiens, UniProt O60885).
T1 construct: made in house; host or cells: T7 phage grown in an E. coli host derived from the BL21 strain
The experiment in a line: Binding affinity to BRD4-BD2 (bromoKdELECT assay). Particulars: 11-point 3-fold dilution series. Here is the method:
(§6) Compounds were tested using a bromoKdELECT assay. T7 phage strains displaying bromodomains were grown in parallel in 24-well blocks in an E. coli host derived from the BL21 strain. E. coli were grown to log-phase and infected with T7 phage from a frozen stock (multiplicity of infection=0.4) and incubated with shaking at 32° C. until lysis (90-150 minutes). The lysates were centrifuged (5,000×g) and filtered ([…]) to remove cell debris. Streptavidin-coated magnetic beads were treated with biotinylated small molecule or acetylated peptide ligands for 30 minutes at room temperature to generate affinity resins for bromodomain assays. The liganded beads were blocked with excess biotin and washed with blocking buffer (SeaBlock (Pierce), 1% BSA, 0.05% Tween 20, 1 mM DTT) to remove unbound ligand and to reduce nonspecific phage binding. Binding reactions were assembled by combining bromodomains, liganded affinity beads, and test compounds in 1× binding buffer (17% SeaBlock, 0.33×PBS, 0.04% Tween 20, 0.02% BSA, 0.004% Sodium azide, 7.4 mM DTT). Test compounds were prepared as 1000× stocks in 100% DMSO. Kds were determined using an 11-point 3-fold compound dilution series with one DMSO control point. All compounds for Kd measurements are distributed by acoustic transfer (non-contact dispensing) in 100% DMSO. The compounds were then diluted directly into the assays such that the final concentration of DMSO was 0.09%. All reactions performed in polypropylene 384-well plates. Each was a final volume of 0.02 ml. The assay plates were incubated at room temperature with shaking for 1 hour and the affinity beads were washed with wash buffer (1×PBS, 0.05% Tween 20). The beads were then resuspended in elution buffer (1×PBS, 0.05% Tween 20, 2 μM non-biotinylated affinity ligand) and incubated at room temperature with shaking for 30 minutes. The bromodomain concentration in the eluates was measured by qPCR.

Test [8] deals with T2, BRD4-BD1 (Homo sapiens, UniProt O60885).
T2 construct: made in house; host or cells: T7 phage grown in an E. coli host derived from the BL21 strain
Nature of the test: Binding affinity to BRD4-BD1 (bromoKdELECT assay). The note with it: 11-point 3-fold dilution series. Here is the method:
as §6, with “[…]” for “μM”

SMILES strings stand for the structures.

One may read the GI50 as the concentration that inhibits growth by half. Read a high GI50 as less potent growth inhibition. As to `CCS(=O)(=O)Nc1ccc(Oc2cccc(OCCCC3CCN(c4ncc(C(=O)N[C@H]5C(C)(C)[C@H](Oc6ccc(C#N)c(Cl)c6)C5(C)C)cn4)CC3)c2)c(-c2cn(C)c(=O)c3[nH]ccc23)c1` [Compound I-27], the concentration for 50% growth inhibition (GI50) was < 0.5 µM in test [1] (Homo sapiens); > 3 µM in test [2]; < 0.5 µM in test [3]; < 0.5 µM in test [4]; 0.5 to 1.5 µM in test [5]; < 0.5 µM in test [6].
For `CCS(=O)(=O)Nc1ccc(Oc2cccc(N3CCC(CC4CCN(c5ncc(C(=O)N[C@H]6C(C)(C)[C@H](Oc7ccc(C#N)c(Cl)c7)C6(C)C)cn5)CC4)CC3)c2)c(-c2cn(C)c(=O)c3[nH]ccc23)c1` [Compound I-36], the 50% growth inhibitory concentration (GI50) in test [1] (Homo sapiens) is < 0.5 µM; in test [2] it was > 3 µM; in test [3] it was < 0.5 µM; in test [4] it was < 0.5 µM; in test [5] it was > 3 µM; in test [6], < 0.5 µM.
What is called Kd is the free concentration of one partner at which half of the binding sites on the other are occupied at equilibrium, for simple one-to-one binding. `CCS(=O)(=O)c1ccc(Oc2cccc(OCCCC3CCN(c4ncc(C(=O)N[C@H]5C(C)(C)[C@H](Oc6ccc(C#N)c(Cl)c6)C5(C)C)cn4)CC3)c2F)c(-c2cn(C)c(=O)c3[nH]ccc23)c1` [Compound I-140]: the Kd in test [7] and in test [8] was > 2.5 µM in each case. In addition, the figures for the GI50 in test [1] (Homo sapiens), in test [4] and in test [5] were 1.5 to 3 µM, < 0.5 µM and < 0.5 µM, respectively.
With `CCS(=O)(=O)Cc1ccc(Oc2cccc(CCCN3CCN(c4ncc(C(=O)N[C@H]5C(C)(C)[C@H](Oc6ccc(C#N)c(Cl)c6)C5(C)C)cn4)CC3)c2F)c(-c2cn(C)c(=O)c3[nH]ccc23)c1` [Compound I-144], the figures for the Kd in test [7] and in test [8] were < 0.05 µM and 0.05 to 0.5 µM, respectively. The GI50 in test [1], in test [4] and in test [5] was < 0.5 µM throughout.
`CCS(=O)(=O)Nc1ccc(Oc2ccc(CCOC3CCN(c4ncc(C(=O)N[C@H]5C(C)(C)[C@H](Oc6ccc(C#N)c(Cl)c6)C5(C)C)cn4)CC3)cc2)c(-c2cn(C)c(=O)c3[nH]ccc23)c1` [Compound I-151]: the results for the Kd in test [7] and in test [8] were < 0.05 µM and 0.05 to 0.5 µM, respectively. For the same molecule, the GI50 in test [1] (Homo sapiens), in test [4] and in test [5] was < 0.5 µM each time.
With `Cn1cc(-c2cc(NS(=O)(=O)CC(F)(F)F)ccc2Oc2cccc(OCCOC3CCN(c4ncc(C(=O)N[C@H]5C(C)(C)[C@H](Oc6ccc(C#N)c(Cl)c6)C5(C)C)cn4)CC3)c2F)c2cc[nH]c2c1=O` [Compound I-153], the Kd is < 0.05 µM in test [7] and 0.5 to 2.5 µM in test [8]. The GI50 in test [1] (Homo sapiens), in test [4] and in test [5] was < 0.5 µM throughout.
On to `CCS(=O)(=O)c1ccc(OC(COCCOC2CCN(c3ncc(C(=O)NC4C(C)(C)C(Oc5ccc(C#N)c(Cl)c5)C4(C)C)cn3)CC2)C2CC2)c(-c2cn(C)c(=O)c3[nH]ccc23)c1` (stereo not shown) [Compound I-186, N-[3-(3-chloro-4-cyano-phenoxy)-2,2,4,4-tetramethyl-cyclobutyl]-2-[4-[2-[2-cyclopropyl-2-[4-ethylsulfonyl-2-(6-methyl-7-oxo-1H-pyrrolo[2,3-c]pyridin-4-yl)phenoxy]ethoxy]ethoxy]-1-piperidyl]pyrimidine-5-carboxamide], for which the Kd in test [7] and in test [8] was 0.05 to 0.5 µM in each case. In addition, the GI50 in test [1] (Homo sapiens), in test [4] and in test [5] was < 0.5 µM in each case.
`CCS(=O)(=O)Nc1ccc(OCC(OCCCOC2CCN(c3ncc(C(=O)N[C@H]4C(C)(C)[C@H](Oc5ccc(C#N)c(Cl)c5)C4(C)C)cn3)CC2)C2CC2)c(-c2cn(C)c(=O)c3[nH]ccc23)c1` (stereo partly shown) [Compound I-187]: the Kd in test [7] fell in the range of 0.5 to 2.5 µM; in test [8] it was 0.05 to 0.5 µM. For the same molecule, the GI50 in test [1] was < 0.5 µM; in test [4] it was < 0.5 µM; in test [5], > 3 µM.
Regarding `CCS(=O)(=O)c1ccc(Oc2cccc(OCCN3CCN(c4ncc(C(=O)N[C@H]5C(C)(C)[C@H](Oc6ccc(C#N)c(Cl)c6)C5(C)C)cn4)CC3)c2F)c(-c2cn(C)c(=O)c3[nH]ccc23)c1` [Compound I-207], the GI50 in test [1], in test [2], in test [3], in test [4] and in test [5] was < 0.5 µM in each case.
Regarding `Cn1cc(-c2cc(C(C)(C)O)ccc2Oc2ccc(CC3CC4(CCN(c5ncc(C(=O)N[C@H]6C(C)(C)[C@H](Oc7ccc(C#N)c(Cl)c7)C6(C)C)cn5)CC4)C3)cc2)c2cc[nH]c2c1=O` [Compound I-279], the GI50 was < 0.5 µM in test [1] (Homo sapiens); > 3 µM in test [2]; < 0.5 µM in test [3]; < 0.5 µM in test [4]; > 3 µM in test [5].

The record behind these values is patent US20250388605A1, “HETEROBIFUNCTIONAL COMPOUNDS AND METHODS OF TREATING DISEASE” (Halda Therapeutics OpCo, Inc., priority 2022, published 2025).
